In patent publication US20240218084A1, “METHOD FOR PURIFYING FOMES OFFICINALIS POLYSACCHARIDE BY SEQUENTIAL SIMULATED MOVING CHROMATOGRAPHY” (HEILONGJIANG BAYI AGRICULTURAL UNIVERSITY, priority 2022, published 2024):

System: Macrophage RAW264.7
Assay: NO production by macrophage RAW264.7 stimulated with polysaccharide (Griess reagent)
Assay type: cell-based
Settings: RAW264.7 cells, positive control 1 μg/mL lipopolysaccharide (LPS), 24 h incubation, supernatant, 540 nm
Protocol: Macrophage RAW264.7 is stimulated using Fomes officinalis polysaccharides prepared in Embodiments 1-3, and the concentrations of NO produced therefrom are determined, and the results are shown in Table 1. Specific experimental methods: 100 microliters (L) of RAW264.7 cells (1×10^6 cells/mL) are added to 96 microtiter plates and pre-cultured in a 37° C. 5% CO2 incubator for 24 hours (h). The supernatant is discarded, and 200 μL of 5 micrograms per milliliter (μg/mL) polysaccharide solution is added to the cells, the culture solution is used as a negative control, and 1 μg/mL lipopolysaccharide (LPS) is used as a positive control, then the cells are incubated for 24 h. To determine the NO level in the supernatant, 100 μL of supernatant is added with 100 μL of Griess reagent, and the absorbance is measured at 540 nm after 10 min of reaction at room temperature and protected from light using an enzyme labeler (Biotek instruments, Winooski, VT, USA), and the NO yield is calculated by substituting the absorbance value of the samples into the standard curve, using sodium nitrite as the standard.

Substance: lipopolysaccharide [Positive control group]
- NO yield: 41.06 µmol/L
